Source: US4299970A, “Oxy-alkylamino carboxylic esters” (Beecham Group Limited, priority 1974, dated 1981)
pIC50: −log10 of the molar value. ≈ marks a conversion by molar mass, not a printed value.

Key:
[1] = system: arterial blood pressure; experiment: effect on arterial blood pressure in the anaesthetised, normotensive rat; type: in vivo; settings: intravenous, dose range 0.001 → 1.0 mg/kg
Procedure: a. The effect of the compounds on arterial blood pressure was determined in the anaesthetised, normotensive rat. The rat preparation was similar to that desribed in "Pharmacological experiments on intact preparations", E. and S. Livingstone, Edinburgh and London, 1970, p. 63.
The active compounds were predominantly depressor agents in the normotensive rat.

[2] = system: human platelet aggregation induced by collagen; experiment: inhibition of human platelet aggregation induced in vitro by collagen; type: cell-based; settings: 10^-4 M, collagen, platelet rich plasma, 37° C.
Procedure: b. The compounds were examined for their ability to inhibit human platelet aggregation induced, in vitro, either by adenosine diphosphate (ADP) or collagen. The compounds were added in saline or dimethylformamide to platelet rich plasma at 37° C. to give a final concentration of 10^-4 M. After 3 minutes the platelets were challenged with ADP or collagen. The aggregation response was then recorded relative to the control.

[3] = system: gerbil colon; contraction to prostaglandin F2α; experiment: prostaglandin antagonist activity on the isolated perfused gerbil colon (contraction to prostaglandin F2α); settings: Meriones unguiculatus; reduction of contraction to prostaglandin F2α; one minute pre-contact time
Procedure: (§1) The compounds were tested for prostaglandin-like and for prostaglandin antagonist activity on the isolated perfused gerbil colon preparation (smooth muscle). This has been shown by J. R. Weeks, J. R. Schultz and W. E. Brown, (1968), J. App. Physiol, 25, 783, to have greater precision and sensitivity than other preparations. A 15 mm portion of the descending colon is suspended in an organ bath and perfused with De Jalon's saline at 32° C. Compounds were given in a three minute cycle with a 45 second contact time and a 15 second washout time. Antagonist compounds were given with a one minute pre-contact time.
Antagonist activity was determined by measuring the percentage reduction of the contraction to two standard doses of prostaglandin F2α which gave responses between 20% and 80% of maximum response.

[4] = system: gerbil colon; experiment: prostaglandin-like activity on the isolated perfused gerbil colon; settings: De Jalon's saline, 32° C.
Procedure: as §1
Prostaglandin-like activity was determined using the method of H. O. Schlid, (1942), J. Physiol., 101, 115, which is a standard 4×4 latin square assay. Some of the compounds stimulated the gerbil colon to contract which is a prostaglandin-like effect, and the results are shown in Table 15.

[5] = system: guinea pig platelet aggregation induced by ADP; experiment: inhibition of guinea pig platelet aggregation induced in vitro by ADP; type: cell-based; settings: Cavia porcellus, ADP 5.45×10^-7 M, platelet rich plasma, 37° C.
Procedure: a. The compounds were examined for their ability to inhibit guinea pig platelet aggregation induced, in vitro, by 5.45×10^-7 M adenosine diphosphate (ADP).
The method consisted of diluting the compound immediately before use from a 10 mg/ml solution in ethanol to a 1 mg/ml solution with saline and then adding the appropriate volume to 0.5 ml of platelet rich plasma. The mixture was stirred at 37° C. for 1 minute before 25 μl of an ADP solution was added to give a final ADP concentration of 5.45×10^-7 M. The aggregation response was then recorded relative to the control.

[6] = system: 5-hydroxy-tryptamine-induced bronchoconstriction; experiment: inhibition of 5-hydroxytryptamine-induced bronchoconstriction (Konsett-Rossler preparation); type: in vivo, guinea pig; settings: Cavia porcellus; intravenous, 2 minutes prior to 5-hydroxytryptamine dose
Procedure: a. The compounds were examined for their ability to inhibit 5-hydroxy-tryptamine-induced bronchoconstriction in the anaesthetised, artifically respired guinea pig (Konsett-Rossler preparation).
H. Konsett and R. Rossler, (1940), Naunyn-Schneidebergs Arch. Exp. Path. Pharmak., 195, 71.
After preparation of the guinea pig, a dose of 5-hydroxytryptamine producing an adequate response was determined by dosing, i.v., every 6 minutes. This dose was usually 10 μg. After a standard response was obtained, compounds were given intra-venously 2 minutes prior to the next standard dose and dosing of 5-hydroxytryptamine was continued every 6 minutes until the response returned to control values.

[7] = system: pentagastrin-stimulated gastric acid secretion; experiment: inhibition of pentagastrin-stimulated gastric acid secretion, anaesthetised perfused rat stomach (Ghosh and Schild preparation); type: in vivo; settings: intravenous
Text: a. The compounds were examined for their ability to inhibit pentagastrin-stimulated gastric acid secretion in the anaesthetised, perfused rat stomach preparation (Ghosh and Schild preparation).
M. N. Ghosh and H. O. Schild, (1958), Brit. J. Pharmacol, 13, 54.
The compounds were given intravenously.

CCCCCCC(O)CCN1CCCC(O)C1CCCCCCCO (centres unmarked) [Compound 105]
% Depression at 1 mg/kg [1]: 20% | inhibition at 100 µM [2]: 78%

CCOC(=O)CCCCCCC1C(O)CCC(=O)N1CCCOCc1ccccc1 (centres unmarked) [Compound 80]
IC50 [3]: 3.1 µg/mL (≈ 7.39 µM)

CCCCCC(O)CCN1C(=O)CC(=O)C1CCCCCCC(=O)OCC (centres unmarked) [Compound 75, 2-(6'-ethoxycarbonyl-n-hexyl)-1-(3"-hydroxy-n-octyl)-pyrrolidin-3,5-dione]
inhibition at 100 µM [2]: 61% | Concentration/ml. for contractions [4]: 0.2 to 0.5 µg/mL

OCCCCCCCC1C(O)CCCN1CCCOCc1ccccc1 (centres unmarked) [Compound 103]
IC50 [3]: 0.35 µg/mL (≈ 0.963 µM)

CCCCCCC(O)CCN1C(=O)CCC(=O)C1CCCCCCC(=O)OCC (centres unmarked) [Compound 78]
% Depression at 1 mg/kg [1]: 30% | inhibition at 100 µM [2]: 65%

CCCCCC(O)CCN1C(=O)CC(O)C1CCCCCCC(=O)OCC (centres unmarked) [Compound 76, 2-(6'-ethoxycarbonyl-n-hexyl)-3-hydroxy-1-(3"-hydroxy-n-octyl)-pyrrolidin5-one]
pIC50 [5]: 3.83 | inhibition at 100 µM [2]: 79%

CCCCCC(CCN1C(=O)CCC(O)C1CCCCCCC(=O)OCC)OCc1ccccc1 (centres unmarked) [Compound 79]
IC50 [3]: 0.76 µg/mL (≈ 1.55 µM)

CCCCCCC(C)(O)CCN1C(=O)CC(O)C1CCCCCCC(=O)OCC (centres unmarked) [Compound 86]
ED50 [6]: 0.505 mg/kg | pIC50 [5]: 4.26

CCCCCC(C)(O)CCN1C(=O)CC(=O)C1CCCCCCC(=O)OCC (centres unmarked) [Compound 62, 2-(6'-Ethoxycarbonyl-n-hexyl)-1-(3"-hydroxy-3"-methyl-n-octyl)-pyrrolidin-3,5-dione]
ED50 [7]: 0.72 mg/kg | ED50 [6]: 0.088 mg/kg | % Depression at 1 mg/kg [1]: 70% | pIC50 [5]: 4.70

CCCCCCC(O)CCN1C(=O)CC(O)C1CCCCCCC(=O)OCC (centres unmarked) [Compound 98]
IC50 [3]: 2.15 µg/mL (≈ 5.38 µM)

CCCCCCC(O)(CC)CCN1C(=O)CC(=O)C1CCCCCCC(=O)OCC (centres unmarked) [Compound 68, 2-(6'-Ethoxycarbonyl-n-hexyl)-1-(3"-hydroxy-3"-ethyl-n-nonyl)-pyrrolidin-3,5-dione]
pIC50 [5]: 5.40

CCCCCCCC(C)(O)CCN1C(=O)CCC(=O)C1CCCCCCC(=O)OCC (centres unmarked) [Compound 57, 2-(6'-Ethoxycarbonyl-n-hexyl)-1-(3"-hydroxy-3"-methyl-n-decyl)-piperidin-3,6-dione]
ED50 [6]: 0.253 mg/kg

CCCCCC(O)CCN1CCCC(O)C1CCCCCCCO (centres unmarked) [Compound 100]
Concentration/ml. for contractions [4]: 0.01 to 0.02 µg/mL

CCCCCC(CCN1C(=O)CC(O)C1CCCCCCC(=O)OCC)OCc1ccccc1 (centres unmarked) [Compound 81]
IC50 [3]: 0.17 µg/mL (≈ 0.357 µM)

CCOC(=O)CCCCCCC1C(=O)CCC(=O)N1CCCO (centres unmarked) [Compound 74]
Concentration/ml. for contractions [4]: 4 to 8 µg/mL

CCCCCC(O)CCN1CCC(O)C1CCCCCCCO (centres unmarked) [Compound 102]
inhibition at 100 µM [2]: 71% | Concentration/ml. for contractions [4]: 0.04 to 0.10 µg/mL

CCCCCC(CCN1CCCC(O)C1CCCCCCCO)OCc1ccccc1 (centres unmarked) [Compound 104, 1-(3'-Benzyloxy-n-octyl)-3-hydroxy-2-(7"-hydroxy-n-heptyl)piperidine]
IC50 [3]: 0.11 µg/mL (≈ 0.254 µM)

CCCCCC(C)C(C)(O)CCN1C(=O)CCC(=O)C1CCCCCCC(=O)OCC (centres unmarked) [Compound 60]
ED50 [7]: 1 mg/kg | pIC50 [5]: 4.96

CCCCCCC(C)(O)CCN1C(=O)CCC(=O)C1CCCCCCC(=O)OCC (centres unmarked) [Compound 56]
pIC50 [5]: 4.29

CCCCCCC(O)CCN1C(=O)CC(=O)C1CCCCCCC(=O)OCC (centres unmarked) [Compound 77, 2-(6'-ethoxycarbonyl-n-hexyl)-1-(3"-hydroxyn-nonyl)-pyrrolidin-3,5-dione]
ED50 [7]: 2.6 mg/kg | ED50 [6]: 0.38 mg/kg | % Depression at 1 mg/kg [1]: 30% | pIC50 [5]: 5.27

CCCCCCCCN1C(=O)CCC(O)C1CCCCCCC (centres unmarked) [Compound 99, 2-n-Heptyl-3-hydroxy-1-n-octyl-piperidin-6-one]
IC50 [3]: 1.55 µg/mL (≈ 4.76 µM)

CCCCCC(CCN1CCC(O)C1CCCCCCCO)OCc1ccccc1 (centres unmarked) [Compound 101]
Concentration/ml. for contractions [4]: 0.04 to 0.10 µg/mL
